Laboratory results as given in patent publication US20200085776A1, “Methods of Reducing C-Reactive Protein and/or Treating Cardiovascular Disease” (CARDAX, INC., priority 2018, published 2020).

System: C-reactive protein (CRP)
Test: CRP (hs-CRP) in blood, CHASE clinical study
Type: in vivo, human
Conditions: Group Z 48 mg BID
From the text: This is a two-part study comprising Part I and Part II. Following screening, Part I consists of a randomized, double-blind, placebo controlled dosing period of up to 12 weeks. The study shall be conducted at one or more study sites in Hawaii. Approximately 360 subjects qualified after completion of screening procedures shall be randomized in a 1:1:1 ratio to one of three treatment groups, per Table 1.
The Part I 12-week double-blind dosing period commences with V2, including randomization and first dose of study product, and continues with study visits at Week 1-2 (V3), Week 4 (V4), Week 8 (V5), and Week 12 (V6). V6 procedures will conclude Part I.
Blood shall be obtained at each visit for CRP. The screening specimen shall be processed at the local lab and reported to the study staff for eligibility determination; CRP samples at V7 and V8 may also be processed locally and reported directly to study staff. Samples for CRP from V2 through V6 may be batched, processed, and reported as specified in the Laboratory Manual.
At each these visits, blood was obtained for measurement of CRP, among other parameters. Table 7A provides a summary of the CRP measurements (mg/L) at each visit and Table 7B provides a summary of the differences of CRP levels between V2 and V6.

[1] = V1 screening, subjects with baseline level greater than 2.0
[2] = V2 baseline pre-dose, all subjects
[3] = V2 baseline pre-dose, subjects not taking a hypertension agent
[4] = V2 baseline pre-dose, subjects not taking any cardiac therapeutic agent
[5] = V2 baseline pre-dose, subjects not taking statins
[6] = V2 baseline pre-dose, subjects taking an anti-diabetic agent
[7] = V2 baseline pre-dose, subjects with CAD
[8] = V2 baseline pre-dose, subjects with DM2, hypertension and hyperlipidemia but not CAD
[9] = V2 baseline pre-dose, subjects with Diabetes Mellitus Type II
[10] = V2 baseline pre-dose, subjects with baseline level greater than 2.0
[11] = V2 baseline pre-dose, subjects with hyperlipidemia
[12] = V3 Week 1-2, subjects with baseline level greater than 2.0
[13] = V4 Week 4, subjects with baseline level greater than 2.0
[14] = V5 Week 8, subjects with baseline level greater than 2.0
[15] = V6 Week 12, subjects not taking a hypertension agent
[16] = V6 Week 12, subjects not taking any cardiac therapeutic agent
[17] = V6 Week 12, subjects not taking statins
[18] = V6 Week 12, subjects taking an anti-diabetic agent

SMILES: CC1=C(/C=C/C(C)=C/C=C/C(C)=C/C=C/C=C(C)/C=C/C=C(C)/C=C/C2=C(C)C(=O)C(O)CC2(C)C)C(C)(C)CC(O)C1=O (stereo not drawn) [Astaxanthin, astaxanthin]
- CRP Max (V1 screening, all subjects): 14.17 mg/L
- CRP Mean (SD) (V1 screening, all subjects): 5.12 (3.39) mg/L
- CRP Median (V1 screening, all subjects): 4.20 mg/L
- CRP Min (V1 screening, all subjects): 2.03 mg/L
- CRP Max [1]: 14.17 mg/L
- CRP Mean (SD) [1]: 5.65 (3.56) mg/L
- CRP Median [1]: 4.94 mg/L
- CRP Min [1]: 2.03 mg/L
- CRP Max [2]: 8.51 mg/L
- CRP Mean (SD) [2]: 4.28 (2.32) mg/L
- CRP Median [2]: 4.68 mg/L
- CRP Min [2]: 1.27 mg/L
- CRP Max [3]: 6.30 mg/L
- CRP Mean (SD) [3]: 4.52 (1.86) mg/L
- CRP Median [3]: 4.68 mg/L
- CRP Min [3]: 2.59 mg/L
- CRP Max [4]: 8.04 mg/L
- CRP Mean (SD) [4]: 4.55 (2.02) mg/L
- CRP Median [4]: 4.68 mg/L
- CRP Min [4]: 1.81 mg/L
- CRP Max [5]: 8.51 mg/L
- CRP Mean (SD) [5]: 4.97 (2.51) mg/L
- CRP Median [5]: 4.83 mg/L
- CRP Min [5]: 1.83 mg/L
- CRP Max [6]: 8.51 mg/L
- CRP Mean (SD) [6]: 4.48 (2.24) mg/L
- CRP Median [6]: 4.98 mg/L
- CRP Min [6]: 1.27 mg/L
- CRP Max [7]: 6.68 mg/L
- CRP Mean (SD) [7]: 3.49 (2.23) mg/L
- CRP Median [7]: 3.12 mg/L
- CRP Min [7]: 1.27 mg/L
- CRP Max [8]: 8.51 mg/L
- CRP Mean (SD) [8]: 5.26 (2.32) mg/L
- CRP Median [8]: 5.04 mg/L
- CRP Min [8]: 2.59 mg/L
- CRP Max [9]: 8.51 mg/L
- CRP Mean (SD) [9]: 4.78 (2.37) mg/L
- CRP Median [9]: 5.01 mg/L
- CRP Min [9]: 1.27 mg/L
- CRP Max [10]: 8.51 mg/L
- CRP Mean (SD) [10]: 5.25 (1.89) mg/L
- CRP Median [10]: 5.17 mg/L
- CRP Min [10]: 2.29 mg/L
- CRP Max [11]: 8.51 mg/L
- CRP Mean (SD) [11]: 3.78 (2.28) mg/L
- CRP Median [11]: 3.12 mg/L
- CRP Min [11]: 1.27 mg/L
- CRP Max (V3 Week 1-2, all subjects): 13.08 mg/L
- CRP Mean (SD) (V3 Week 1-2, all subjects): 4.86 (3.09) mg/L
- CRP Median (V3 Week 1-2, all subjects): 4.52 mg/L
- CRP Min (V3 Week 1-2, all subjects): 1.77 mg/L
- CRP Max [12]: 13.08 mg/L
- CRP Mean (SD) [12]: 5.62 (3.21) mg/L
- CRP Median [12]: 4.88 mg/L
- CRP Min [12]: 2.27 mg/L
- CRP Max (V4 Week 4, all subjects): 7.81 mg/L
- CRP Mean (SD) (V4 Week 4, all subjects): 3.42 (1.84) mg/L
- CRP Median (V4 Week 4, all subjects): 3.04 mg/L
- CRP Min (V4 Week 4, all subjects): 0.90 mg/L
- CRP Max [13]: 7.81 mg/L
- CRP Mean (SD) [13]: 3.94 (1.86) mg/L
- CRP Median [13]: 3.27 mg/L
- CRP Min [13]: 0.90 mg/L
- CRP Max (V5 Week 8, all subjects): 9.20 mg/L
- CRP Mean (SD) (V5 Week 8, all subjects): 3.49 (2.06) mg/L
- CRP Median (V5 Week 8, all subjects): 3.04 mg/L
- CRP Min (V5 Week 8, all subjects): 0.91 mg/L
- CRP Max [14]: 9.20 mg/L
- CRP Mean (SD) [14]: 4.09 (2.07) mg/L
- CRP Median [14]: 4.17 mg/L
- CRP Min [14]: 1.15 mg/L
- CRP Max (V6 Week 12, all subjects): 8.84 mg/L
- CRP Mean (SD) (V6 Week 12, all subjects): 3.41 (2.24) mg/L
- CRP Median (V6 Week 12, all subjects): 2.53 mg/L
- CRP Min (V6 Week 12, all subjects): 0.61 mg/L
- CRP Max [15]: 4.30 mg/L
- CRP Mean (SD) [15]: 2.94 (1.20) mg/L
- CRP Median [15]: 2.48 mg/L
- CRP Min [15]: 2.04 mg/L
- CRP Max [16]: 8.84 mg/L
- CRP Mean (SD) [16]: 3.13 (2.14) mg/L
- CRP Median [16]: 2.53 mg/L
- CRP Min [16]: 0.61 mg/L
- CRP Max [17]: 8.84 mg/L
- CRP Mean (SD) [17]: 4.16 (2.57) mg/L
- CRP Median [17]: 3.24 mg/L
- CRP Min [17]: 1.88 mg/L
- CRP Max [18]: 7.87 mg/L
- CRP Mean (SD) [18]: 3.31 (2.28) mg/L
- CRP Median [18]: 2.53 mg/L
- CRP Min [18]: 0.61 mg/L
- CRP Max (V6 Week 12, subjects with CAD): 2.31 mg/L
- CRP Mean (SD) (V6 Week 12, subjects with CAD): 1.57 (0.72) mg/L
- CRP Median (V6 Week 12, subjects with CAD): 1.88 mg/L
- CRP Min (V6 Week 12, subjects with CAD): 0.61 mg/L
